Assay results taken from patent US4283398A, “Cephalosporins” (Mitsui Toatsu Chemicals, Inc., priority 1978, dated 1981).
Values after ≈ are worked out from the molar mass of the structure shown.

Legend:
[1] = test system: Serratia marcescens (S-33); assay: minimum growth inhibitory concentration (MIC) method; type: cell-based; details: HIA medium, 37° C., 18 hours, sodium salts
Procedure: (§1) The antibacterial activities of the cephalosporins of this invention were measured using the sodium salts of the compounds obtained in Synthesis Examples 1 and 2. The procedure and the results are shown in Referential Example 1.
(§2) Carbenicillin sodium salt (CB-PC) and cephazoline sodium salt (CEZ) were used as controls.
(§3) The antibacterial activities of the test compounds against various Gram-positive and Gram-negative bacteria were determined in a customary manner by the minimum growth inhibitory concentration method (MIC method).
(§4) A commercially available heart infusion agar medium (to be abbreviated HIA medium) was used as an assay medium, and a commercially available trypto-soy bouillon medium (to be abbreviated TSB) was used as a medium for the growth of test bacterial strains.
(§5) The test compound was diluted with the melted HIA medium to 100 μg/ml as a maximum concentration, and then serially diluted double. The dilutions were poured into sterilized Petri dishes respectively and allowed to cool and solidify to prepare plates containing the test compound.
(§6) The test bacterial strain was cultivated at 37° C. for 18 to 24 hours in the TSB medium. The culture broth was diluted to 50 to 500 times with a freshly prepared TSB culture medium, and one platinum loopful of the dilution was inoculated in each of the plates containing the test compound. The plate was incubated at 37° C. for 18 hours, and the state of growth of the strain on the plate was observed, and the minimum growth inhibitory concentration (MIC) of the test compound was determined.

[2] = test system: Pseudomonas aeruginosa (NCTC 7244); assay: MIC in HIB medium at different inocula (turbidity); type: cell-based; details: NCTC7244, 18 h, 37° C.
Procedure: (§7) The compounds obtained in Synthesis Examples 1 and 2 were tested in the following manner.
(§8) A suspension of Pseudomonas aeruginosa (NCTC 7244) cultivated at 37° C. for 18 hours in a heart infusion broth medium (HIB medium) in a final amount of 10^5, 10^6 and 10^7 cells/ml in an HIB medium containing each of the test compounds which was obtained in the same way as in Referential Example 1 except that the maximum concentration of the test compound was 200 μg/ml. The bacterial strain was cultivated at 37° C. for 18 hours, and the turbidity of the culture broth was evaluated with the naked eye. The minimum concentration of the test compound at which no turbidity was noted was defined as MIC.

[3] = test system: Pseudomonas aeruginosa (NCTC 7244); assay: minimum bactericidal concentration (MBC); type: cell-based; details: NCTC7244, 18 h, subculture on HIA medium, 37° C.
Procedure: as §7, §8
After the determination of MIC, one platinum loopful of each of the culture broths in various concentrations was taken out from the test tubes, and inoculated in a separately provided plate of an HIA medium not containing the test compound, and incubated at 37° C. for 18 hours. The growth of the bacterial strain was evaluated.

[4] = blood level in rats after intramuscular administration; type: in vivo; details: rat, im, 20 mg/kg i.m., serum, read-out: Blood level after administration (average value ± standard deviation); for concentration at 0.25 h: 15 minutes; for concentration at 0.5 h: 30 minutes; for concentration at 1 h: 60 minutes; for concentration at 2 h: 120 minutes
Procedure: The compounds of this invention prepared in synthesis Examples 1 and 2 were each administered intramuscularly to rats, and the concentrations of the compounds in the blood were determined.
Each of the test compounds was intramuscularly injected into the femoral part of rats in a customary manner in a dose of 20 mg/kg for each rat. The blood was drawn by incising the cervical artery and vein at the end of 15 minutes, 30 minutes, 60 minutes, 120 minutes, and 240 minutes after the injection. The separated sera were used for the measurement of the blood level of the test compound. The concentrations of the test compounds in the sera were determined by a thin-layer cup method using Micrococcus luteus ATCC 9341 as an assay microorganism.

[5] = test system: Klebsiella pneumonia (F-5089); assay: minimum growth inhibitory concentration (MIC) method; type: cell-based; details: Klebsiella pneumoniae, HIA medium, 37° C., 18 hours, sodium salts
Procedure: as §1, §2, §3, §4, §5, §6

Cn1nnnc1SCC1=C(C(=O)O)N2C(=O)C(NC(=O)[C@H](NC(=O)c3cnc4c(c3O)C(=O)CCC4)c3ccc(O)cc3)C2SC1 (single isomer, unassigned) [Synthesis Example 2, 7-[D-(-)-α-(4-hydroxy-5-oxo-5,6,7,8-tetrahydroquinoline-3-carboxamide)-α-(4-hydroxyphenyl)acetamido]-3-[[(1-methyl-1H-tetrazol-5-yl)thio]methyl]-Δ^3-cephem-4-carboxylic acid] gave an MIC [1] of 3.13 µg/mL, an MIC ([2]; inoculum 10^5 cells/ml) of 6.25 µg/mL (≈ 9.37 µM) and an MIC ([2]; inoculum 10^6 cells/ml) of 6.25 µg/mL (≈ 9.37 µM). The MIC ([2]; inoculum 10^7 cells/ml) was 12.5 µg/mL (≈ 18.7 µM), the MBC ([3]; inoculum 10^5 cells/ml) was 6.25 µg/mL (≈ 9.37 µM) and the MBC ([3]; inoculum 10^6 cells/ml) was 12.5 µg/mL (≈ 18.7 µM). For the same compound, the MBC ([3]; inoculum 10^7 cells/ml) was over 200 µg/mL, the concentration at 0.25 h [4] was 20000 ± 1400 ng/mL and the concentration at 0.5 h [4] was 14400 ± 2500 ng/mL. For the same compound, the concentration at 1 h [4] was 8000 ± 4000 ng/mL and the concentration at 2 h [4] was 3200 ± 1200 ng/mL.

For Cc1nnc(SCC2=C(C(=O)O)N3C(=O)[C@@H](NC(=O)Cn4cnnn4)[C@H]3SC2)s1 [CEZ, sodium 7-[1-(1H)-tetrazoylacetamido]-3-[2-(5-methyl-1,3,4-thiadiazoyl)-thiomethyl]-Δ^3, cephem-4-carboxylate, reference compound], the MIC [5] was 3.13 µg/mL, the MIC [1] was over 100 µg/mL and the MIC ([2]; inoculum 10^5 cells/ml) was over 200 µg/mL. The MIC ([2]; inoculum 10^6 cells/ml) was over 200 µg/mL, the MIC ([2]; inoculum 10^7 cells/ml) was over 200 µg/mL and the MBC ([3]; inoculum 10^5 cells/ml) was over 200 µg/mL. It also gave an MBC ([3]; inoculum 10^6 cells/ml) of over 200 µg/mL and an MBC ([3]; inoculum 10^7 cells/ml) of over 200 µg/mL.

With Cn1nnnc1SCC1=C(C(=O)O)N2C(=O)C(NC(=O)[C@H](NC(=O)c3cnc4c(c3O)C(=O)CCC4)c3ccccc3)C2SC1 (single isomer, unassigned) [Synthesis Example 1, 7-[D-(-)-α-(4-hydroxy-5-oxo-5,6,7,8-tetrahydroquinoline-3-carboxamide)phenylacetamido)-3-[[(1-methyl-1H-tetrazol-5-yl)thio]methyl]-Δ^3-cephem-4-carboxylic acid] the MIC [1] was 3.13 µg/mL, the MIC ([2]; inoculum 10^5 cells/ml) was 12.5 µg/mL (≈ 19.2 µM) and the MIC ([2]; inoculum 10^6 cells/ml) was 12.5 µg/mL (≈ 19.2 µM). It also gave an MIC ([2]; inoculum 10^7 cells/ml) of 25 µg/mL (≈ 38.4 µM), an MBC ([3]; inoculum 10^5 cells/ml) of 12.5 µg/mL (≈ 19.2 µM) and an MBC ([3]; inoculum 10^6 cells/ml) of 12.5 µg/mL (≈ 19.2 µM). For the same compound, the MBC ([3]; inoculum 10^7 cells/ml) was over 200 µg/mL, the concentration at 0.25 h [4] was 12100 ± 3600 ng/mL and the concentration at 0.5 h [4] was 10500 ± 2200 ng/mL. It also gave a concentration at 1 h [4] of 9100 ± 3200 ng/mL and a concentration at 2 h [4] of 4800 ± 2100 ng/mL.

For CC1(C)S[C@@H]2[C@H](NC(=O)C(C(=O)O)c3ccccc3)C(=O)N2[C@H]1C(=O)O (stereo partly drawn) [CB-PC, disodium-α-carboxybenzyl penicillin, reference compound], the MIC [5] was 50 µg/mL, the MIC [1] was 6.25 µg/mL and the MIC ([2]; inoculum 10^5 cells/ml) was 50 µg/mL. It also gave an MIC ([2]; inoculum 10^6 cells/ml) of 100 µg/mL, an MIC ([2]; inoculum 10^7 cells/ml) of 200 µg/mL and an MBC ([3]; inoculum 10^5 cells/ml) of 100 µg/mL. It also gave an MBC ([3]; inoculum 10^6 cells/ml) of 100 µg/mL and an MBC ([3]; inoculum 10^7 cells/ml) of over 200 µg/mL.
